According to patent US20130259944A1, “METHODS AND COMPOSITIONS FOR TREATING CANCER WITH PLATINUM PARTICLES” (EMORY UNIVERSITY, priority 2012, published 2013):

How the values were obtained:
[1] = test system: H520 cells (EGFR-negative NSCLC); test: Intracellular platinum accumulation in H520 cells (ICP-MS); format: cell-based, human; settings: 24 h
Procedure: (§1) EGFR-negative H520 cells were used as negative control. […] The cell pellet was digested in 65% (v/v) nitric acid at 75° C. for 2 h. The Pt content was analyzed by ICP-MS. Cellular Pt levels were expressed in ng Pt/10^6 cells. To further check the targeting specificity of EHDDP nanoparticles in vitro, EGFR was knocked down by EGFR small interfering RNAs (siRNA). H292 cells were transfected with EGFR siRNA (sc-29301 from Santa Cruz Bio) (100 pmol) or scrambled siRNA (sc-37007 from Santa Cruz Bio) (100 pmol) as a nonspecific control according to the manufacturer's protocols. Briefly, in a 6-well tissue culture plate, 2×10^5 cells per well were seeded in 2 mL of antibiotic-free RPMI 1640 medium supplemented with 10% FBS and, on the following day, transfected with siRNAs at the final concentration of 100 pmol. […] Mouse anti-β-actin antibody (Trevigen, Gaithersburg, Md.) was used as a sample loading control. Immunostained protein bands were detected with an enhanced chemiluminescence kit (Thermo Scientific, Rockfield, Ill.). […] The data are shown as mean±SD (n=3). DDP-DNA adduct formation was measured using 1×10^7 cells per condition. […] In addition, the expression level of the phosphorylation of H2A.X was detected by Western Blot as described above using the Phospho-Histone H2A.X (Ser139) (20E3) rabbit mAb (Cell Signaling Technology, Inc.).

[2] = test system: H292 cells; test: SRB cytotoxicity assay; format: cell-based, human; settings: 96 h
Procedure: H292 and H520 cells maintained in medium with 2% FBS were seeded in 96-well plates at a density of 5000 cells/well overnight prior to drug treatment. […] Cells were fixed for 1 h with 10% cold trichloroacetic acid. Plates were washed five times in water, air-dried, and then stained with 0.4% SRB for 10 min. […] Plates were read in a microplate reader by measuring absorbance at 492 nm. The percent survival was then calculated based upon the absorbance values relative to untreated samples. The experiment was repeated three times.

[3] = Biodistribution of Pt in organs and tumor of H292 tumor-bearing mice; format: in vivo, nude mice
Procedure: (§2) Blood, organs (liver, spleen, kidney, and lung), and tumor tissue were harvested, half of the organs were dissolved in 65% (v/v) nitric acid at 75° C. for 2 h, and Pt concentrations were measured by ICP-MS. The blood and other half of the organs were used to extract DNA, and the Pt concentration in DNA was quantified as described above.

[4] = Pt-DNA adducts in kidney and tumor in vivo; design: species or system nude mice; settings: single iv dose Pt 2.5 mg/kg
Procedure: as §2

[5] = test system: H292 cells; test: Pt-DNA adduct formation in vitro (ICP-MS of purified DNA); format: cell-based, human; settings: 37° C., 24 h
Procedure: as §1

[6] = test system: H292 cells (EGFR-positive NSCLC); test: Intracellular platinum accumulation in H292 cells (ICP-MS); format: cell-based, human; settings: 0.4 μg/mL, 24 h
Procedure: as §1

[7] = Concentration profile of Pt in mice peripheral blood; format: in vivo, nude mice; settings: for Pt concentration in blood: Pt 2.5 mg/kg
Procedure: The whole blood samples were dissolved in 65% (v/v) nitric acid at 75° C. for 2 h, and Pt concentration was measured by ICP-MS.

## N.N.[Cl][Pt][Cl] [DDP, cis-diamminedichloroplatinum(II)]
[1]
  intracellular Pt accumulation: 3.38±0.42 ng Pt/10^6 cells
[2]
  IC50 (Pt concentration): 2.12 ± 0.20 µg/mL
[3]; 10 min after iv injection
  tumor Pt level: 3.58±0.91 ng/mg dry tissue
[3]; 10 min after systemic administration
  Pt concentration in kidney: 35.25±5.70 ng/mg dry tissue
[3]; 4 h
  Pt concentration in kidney: 11.9±0.79 ng/mg dry tissue
[3]; 4 h, single iv dose Pt 2.5 mg/kg
  accumulation of Pt in the liver: 7.71±1.61 ng/mg dry tissue
[3]; 24 h
  Pt concentration in kidney: 6.39±0.67 ng/mg dry tissue
[3]; 24 h after iv injection
  tumor Pt level: 1.48±0.52 ng/mg dry tissue
[3]; 24 h compared with 4 h
  decrease of Pt concentration in the liver: 20%
[3]; 28 days after treatment
  Pt concentrations in the liver, spleen and kidney, comparison between treatments: no differences
[3]; from 10 min to 4 h
  decrease of Pt accumulation in the liver: 42.5%
  decrease of Pt accumulation in the spleen: 82.86%
[3]; within 4 h
  decrease in Pt accumulation in the kidney: 65.1%
[4]; 4 h
  Pt concentration in DNA purified from kidney: 71.78±9.02 pg/μg DNA
  Pt-DNA adducts in NSCLC xenograft tumors: 92.21±8.96 pg/μg DNA
[4]; 24 h
  Pt concentration in DNA purified from kidney: 25.72±2.78 pg/μg DNA
  Pt-DNA adducts in NSCLC xenograft tumors: 94.68±15.01 pg/μg DNA
[5]
  Pt level associated with cellular DNA (Pt-DNA adducts): 19.68±4.35 pg Pt/μg DNA
[6]
  intracellular Pt level: 2.49±0.39 ng Pt/10^6 cells
[7]; 30 min after iv injection
  Pt concentration in blood: 1.17±0.12 ng/mg blood
[7]; 8 h after iv injection
  Pt concentration in blood: 0.36±0.09 ng/mg blood
[7]; discussion statement
  time of elimination by the renal system: < 5 min
